{"source": "PubChem BioAssay (NCI)", "test_in_all_cases": "growth of human tumour cells (NCI), 384-well format", "key": {"BT-549 breast": {"tested_on": "BT-549 breast"}, "HCC-2998 colon": {"tested_on": "HCC-2998 colon"}, "HOP-92 NSCLC": {"tested_on": "HOP-92 NSCLC"}, "K-562 leukemia": {"tested_on": "K-562 leukemia"}, "MDA-MB-435 melanoma": {"tested_on": "MDA-MB-435 melanoma"}, "NCI/ADR-RES ovarian": {"tested_on": "NCI/ADR-RES ovarian"}, "OVCAR-4 ovarian": {"tested_on": "OVCAR-4 ovarian"}, "OVCAR-8 ovarian": {"tested_on": "OVCAR-8 ovarian"}, "SF-268 CNS": {"tested_on": "SF-268 CNS"}, "SNB-19 CNS": {"tested_on": "SNB-19 CNS"}, "T-47D breast": {"tested_on": "T-47D breast"}, "TK-10 renal": {"tested_on": "TK-10 renal"}, "UACC-62 melanoma": {"tested_on": "UACC-62 melanoma"}}, "note": "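GI50: concentration for 50% inhibition of growth. TGI: concentration producing complete growth inhibition.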 Residues, ends and D or L forms follow the SMILES beside them. *: point of attachment. Cbz = O=C(OCc1ccccc1)*"}
{"compound": "CC(C)C[C@@H](C=O)NC(=O)[C@H](CC(C)C)NC(=O)[C@H](CC(C)C)NC(=O)OCc1ccccc1", "note": "(Cbz-Leu-Leu-Leu-aldehyde)", "values": [{"measurement": "GI50", "setting": "BT-549 breast", "value": 164, "unit": "nM"}, {"measurement": "TGI", "setting": "BT-549 breast", "value": 305, "unit": "nM"}, {"measurement": "GI50", "setting": "HCC-2998 colon", "value": 179, "unit": "nM"}, {"measurement": "TGI", "setting": "HCC-2998 colon", "value": 327, "unit": "nM"}, {"measurement": "GI50", "setting": "HOP-92 NSCLC", "value": 179, "unit": "nM"}, {"measurement": "TGI", "setting": "HOP-92 NSCLC", "value": 328, "unit": "nM"}, {"measurement": "GI50", "setting": "K-562 leukemia", "value": 176, "unit": "nM"}, {"measurement": "TGI", "setting": "K-562 leukemia", "value": 334, "unit": "nM"}, {"measurement": "GI50", "setting": "MDA-MB-435 melanoma", "value": 176, "unit": "nM"}, {"measurement": "TGI", "setting": "MDA-MB-435 melanoma", "value": 321, "unit": "nM"}, {"measurement": "GI50", "setting": "NCI/ADR-RES ovarian", "value": 1570, "unit": "nM"}, {"measurement": "TGI", "setting": "NCI/ADR-RES ovarian", "value": 3060, "unit": "nM"}, {"measurement": "GI50", "setting": "OVCAR-4 ovarian", "value": 174, "unit": "nM"}, {"measurement": "TGI", "setting": "OVCAR-4 ovarian", "value": 324, "unit": "nM"}, {"measurement": "GI50", "setting": "OVCAR-8 ovarian", "value": 164, "unit": "nM"}, {"measurement": "TGI", "setting": "OVCAR-8 ovarian", "value": 313, "unit": "nM"}, {"measurement": "GI50", "setting": "SF-268 CNS", "value": 166, "unit": "nM"}, {"measurement": "TGI", "setting": "SF-268 CNS", "value": 313, "unit": "nM"}, {"measurement": "GI50", "setting": "SNB-19 CNS", "value": 161, "unit": "nM"}, {"measurement": "TGI", "setting": "SNB-19 CNS", "value": 340, "unit": "nM"}, {"measurement": "GI50", "setting": "T-47D breast", "value": 169, "unit": "nM"}, {"measurement": "TGI", "setting": "T-47D breast", "value": 319, "unit": "nM"}, {"measurement": "GI50", "setting": "TK-10 renal", "value": 195, "unit": "nM"}, {"measurement": "TGI", "setting": "TK-10 renal", "value": 417, "unit": "nM"}, {"measurement": "GI50", "setting": "UACC-62 melanoma", "value": 168, "unit": "nM"}, {"measurement": "TGI", "setting": "UACC-62 melanoma", "value": 312, "unit": "nM"}]}
{"compound": "Cc1[nH]nc2ncc(C(=O)N3CCC[C@H]3c3ccc(Cl)cc3)cc12", "values": [{"measurement": "GI50", "setting": "BT-549 breast", "value": 57700, "unit": "nM"}, {"measurement": "TGI", "setting": "BT-549 breast", "value": "> 100000", "unit": "nM"}, {"measurement": "GI50", "setting": "HCC-2998 colon", "value": 32300, "unit": "nM"}, {"measurement": "TGI", "setting": "HCC-2998 colon", "value": "> 100000", "unit": "nM"}, {"measurement": "GI50", "setting": "HOP-92 NSCLC", "value": "> 55600", "unit": "nM"}, {"measurement": "TGI", "setting": "HOP-92 NSCLC", "value": "> 89700", "unit": "nM"}, {"measurement": "GI50", "setting": "K-562 leukemia", "value": 20900, "unit": "nM"}, {"measurement": "TGI", "setting": "K-562 leukemia", "value": 44100, "unit": "nM"}, {"measurement": "GI50", "setting": "MDA-MB-435 melanoma", "value": "> 100000", "unit": "nM"}, {"measurement": "TGI", "setting": "MDA-MB-435 melanoma", "value": "> 100000", "unit": "nM"}, {"measurement": "GI50", "setting": "NCI/ADR-RES ovarian", "value": 30800, "unit": "nM"}, {"measurement": "TGI", "setting": "NCI/ADR-RES ovarian", "value": "> 100000", "unit": "nM"}, {"measurement": "GI50", "setting": "OVCAR-4 ovarian", "value": "> 100000", "unit": "nM"}, {"measurement": "TGI", "setting": "OVCAR-4 ovarian", "value": "> 100000", "unit": "nM"}, {"measurement": "GI50", "setting": "OVCAR-8 ovarian", "value": "> 100000", "unit": "nM"}, {"measurement": "TGI", "setting": "OVCAR-8 ovarian", "value": "> 100000", "unit": "nM"}, {"measurement": "GI50", "setting": "SF-268 CNS", "value": "> 100000", "unit": "nM"}, {"measurement": "TGI", "setting": "SF-268 CNS", "value": "> 100000", "unit": "nM"}, {"measurement": "GI50", "setting": "SNB-19 CNS", "value": "> 100000", "unit": "nM"}, {"measurement": "TGI", "setting": "SNB-19 CNS", "value": "> 100000", "unit": "nM"}, {"measurement": "GI50", "setting": "T-47D breast", "value": 68200, "unit": "nM"}, {"measurement": "TGI", "setting": "T-47D breast", "value": "> 100000", "unit": "nM"}, {"measurement": "GI50", "setting": "TK-10 renal", "value": 80600, "unit": "nM"}, {"measurement": "TGI", "setting": "TK-10 renal", "value": "> 100000", "unit": "nM"}, {"measurement": "GI50", "setting": "UACC-62 melanoma", "value": 23400, "unit": "nM"}, {"measurement": "TGI", "setting": "UACC-62 melanoma", "value": 48600, "unit": "nM"}]}
